Data from patent EP0349354A1, “Peptides PF10 to PF19 from a retro virus HIV, method for the synthesis of these peptides and their use, particularly in diagnostics” (INSTITUT PASTEUR, priority 1988, dated 1990).
Where no end group is shown, it is not given here. The star is where a group is joined. Acm = CC(=O)NC*

Legend:
[1] = tested on: anticorps anti-protéine F; assay: Western blot test on peptide spots with sera of HIV-1 infected patients; assay type: binding, humain; design: key to réaction avec sérum CHA 1/300, 10µl / réaction avec sérum LOM 1/100, 10µl / réaction avec sérum LOM 1/100, 5µl / réaction avec sérum CHA 1/300, 5µl / réaction avec sérum CHA 1/300, 2µl / réaction avec sérum CHA 1/300, 1µl / réaction avec sérum 1545 1/200, 10µl: ++ signifiant une réaction plus marquée
Protocol: Pour les besoins du test, les différents peptides PF16, PF19, PF13, PF17 utilisés sont dilués à une concentration de 2 mg/ml.
Sur une bande de papier BIORAD pour transblot, on dépose différents spots : 1µl, 2µl, 5µl, 10µl.
Après séchage on pratique un test Western Blot classique en utilisant comme anticorps des sérums de patients infectés par le virus HIV-1, positifs pour la protéine F, à des dilutions variant de 1/100 à 1/300.
Les peptides testés permettent d'aboutir aux résultats résumés dans le tableau 2 avec trois sérums différents anti-F ++ (++ signifiant une réaction plus marquée).

[2] = tested on: anticorps, monoclonal anti-protéine F d'un rétrovirus HIV-1; assay: ELISA with mouse monoclonal anti-protein F antibody; assay type: binding, souris; details: antibody produced in mouse
Source text: Par ailleurs, les inventeurs ont constaté qu'un anticorps, monoclonal anti-protéine F d'un rétrovirus HIV-1 produit chez la souris reconnait le peptide PF16 de l'invention dans un test ELISA.

anticorps anti-nef = assay: ELISA for detection of anti-nef antibodies on coated peptides or nef; assay type: binding, humain

Substance: GMDDPEREVLEWRFDSRLAFHHVARELHPEYFKNC(acm) (GMDDPEREVLEWRFDSRLAFHHVARELHPEYFKNC(Acm)) [PF16, protéine F HIV-1, séquence 171-205]
- réaction avec sérum 1545 1/200, 10µl ([1]; serum 1545 diluted 1/200, spot 10µl of peptide at 2 mg/ml): ++
- réaction avec sérum CHA 1/300, 1µl ([1]; serum CHA diluted 1/300, spot 1µl of peptide at 2 mg/ml): ++
- réaction avec sérum CHA 1/300, 2µl ([1]; serum CHA diluted 1/300, spot 2µl of peptide at 2 mg/ml): ++
- réaction avec sérum CHA 1/300, 5µl ([1]; serum CHA diluted 1/300, spot 5µl of peptide at 2 mg/ml): ++
- réaction avec sérum CHA 1/300, 10µl ([1]; serum CHA diluted 1/300, spot 10µl of peptide at 2 mg/ml): ++
- réaction avec sérum LOM 1/100, 5µl ([1]; serum LOM diluted 1/100 (column outside the heading of positive sera), spot 5µl of peptide at 2 mg/ml): ++
- réaction avec sérum LOM 1/100, 10µl ([1]; serum LOM diluted 1/100 (column outside the heading of positive sera), spot 10µl of peptide at 2 mg/ml): ++
- reconnaissance par un anticorps monoclonal anti-protéine F [2]: reconnait
- nombre de sérums anti-nef positifs ayant réagi (anticorps anti-nef; ELISA, out of 31 anti-nef positive sera): 26
- intensité de l'immunoréactivité (OD), Serum 1 (anticorps anti-nef; Serum 1, anti-nef positive, 500 ng coated per well): +++ (pour OD = 0,8 à 2,0)
- intensité de l'immunoréactivité (OD), Serum 2 (anticorps anti-nef; Serum 2, anti-nef positive, 500 ng coated per well): +++ (pour OD = 0,8 à 2,0)
- intensité de l'immunoréactivité (OD), Serum 3 (anticorps anti-nef; Serum 3, anti-nef positive, 500 ng coated per well): + (pour OD = 0,2 à 0,4)
- intensité de l'immunoréactivité (OD), Serum 4 (anticorps anti-nef; Serum 4, anti-nef positive, 500 ng coated per well): +++ (pour OD = 0,8 à 2,0)
- intensité de l'immunoréactivité (OD), Serum 5 (anticorps anti-nef; Serum 5, anti-nef positive, 500 ng coated per well): +++ (pour OD = 0,8 à 2,0)
- intensité de l'immunoréactivité (OD), Serum 6 (anticorps anti-nef; Serum 6, anti-nef positive, 500 ng coated per well): +++ (pour OD = 0,8 à 2,0)
- intensité de l'immunoréactivité (OD), Serum 7 (anticorps anti-nef; Serum 7, anti-nef positive, 500 ng coated per well): - (pour une densité optique (OD) inférieure à 0,2)
- intensité de l'immunoréactivité (OD), Serum 8 (anticorps anti-nef; Serum 8, anti-nef positive, 500 ng coated per well): - (pour une densité optique (OD) inférieure à 0,2)
- intensité de l'immunoréactivité (OD), Serum 9 (anticorps anti-nef; Serum 9, anti-nef positive, 500 ng coated per well): - (pour une densité optique (OD) inférieure à 0,2)
- intensité de l'immunoréactivité (OD), Serum 10 (anticorps anti-nef; Serum 10, anti-nef positive, 500 ng coated per well): + (pour OD = 0,2 à 0,4)
- intensité de l'immunoréactivité (OD), Serum 11 (anticorps anti-nef; Serum 11, anti-nef positive, 500 ng coated per well): + (pour OD = 0,2 à 0,4)
- intensité de l'immunoréactivité (OD), Serum 12 (anticorps anti-nef; Serum 12, anti-nef positive, 500 ng coated per well): - (pour une densité optique (OD) inférieure à 0,2)
- intensité de l'immunoréactivité (OD), Serum 13 (anticorps anti-nef; Serum 13, anti-nef positive, 500 ng coated per well): ++ (pour OD = 0,4 à 0,8)
- intensité de l'immunoréactivité (OD), Serum 14 (anticorps anti-nef; Serum 14, anti-nef positive, 500 ng coated per well): - (pour une densité optique (OD) inférieure à 0,2)
- intensité de l'immunoréactivité (OD), Serum 15 (anticorps anti-nef; Serum 15, anti-nef positive, 500 ng coated per well): +++ (pour OD = 0,8 à 2,0)
- intensité de l'immunoréactivité (OD), Serum 16 (anticorps anti-nef; Serum 16, anti-nef positive, 500 ng coated per well): +++ (pour OD = 0,8 à 2,0)
- intensité de l'immunoréactivité (OD), Serum 17 (anticorps anti-nef; Serum 17, anti-nef positive, 500 ng coated per well): ++ (pour OD = 0,4 à 0,8)
- intensité de l'immunoréactivité (OD), Serum 18 (anticorps anti-nef; Serum 18, anti-nef positive, 500 ng coated per well): +++ (pour OD = 0,8 à 2,0)
- intensité de l'immunoréactivité (OD), Serum 19 (anticorps anti-nef; Serum 19, anti-nef positive, 500 ng coated per well): +++ (pour OD = 0,8 à 2,0)
- intensité de l'immunoréactivité (OD), Serum 20 (anticorps anti-nef; Serum 20, anti-nef positive, 500 ng coated per well): ++ (pour OD = 0,4 à 0,8)
- intensité de l'immunoréactivité (OD), Serum 21 (anticorps anti-nef; Serum 21, anti-nef positive, 500 ng coated per well): +++ (pour OD = 0,8 à 2,0)
- intensité de l'immunoréactivité (OD), Serum 22 (anticorps anti-nef; Serum 22, anti-nef positive, 500 ng coated per well): +++ (pour OD = 0,8 à 2,0)
- intensité de l'immunoréactivité (OD), Serum 23 (anticorps anti-nef; Serum 23, anti-nef positive, 500 ng coated per well): ++ (pour OD = 0,4 à 0,8)
- intensité de l'immunoréactivité (OD), Serum 24 (anticorps anti-nef; Serum 24, anti-nef positive, 500 ng coated per well): +++ (pour OD = 0,8 à 2,0)
- intensité de l'immunoréactivité (OD), Serum 25 (anticorps anti-nef; Serum 25, anti-nef positive, 500 ng coated per well): +++ (pour OD = 0,8 à 2,0)
- intensité de l'immunoréactivité (OD), Serum 26 (anticorps anti-nef; Serum 26, anti-nef positive, 500 ng coated per well): +++ (pour OD = 0,8 à 2,0)
- intensité de l'immunoréactivité (OD), Serum 27 (anticorps anti-nef; Serum 27, anti-nef positive, 500 ng coated per well): + (pour OD = 0,2 à 0,4)
- intensité de l'immunoréactivité (OD), Serum 28 (anticorps anti-nef; Serum 28, anti-nef positive, 500 ng coated per well): ++ (pour OD = 0,4 à 0,8)
- intensité de l'immunoréactivité (OD), Serum 29 (anticorps anti-nef; Serum 29, anti-nef positive, 500 ng coated per well): ++ (pour OD = 0,4 à 0,8)
- intensité de l'immunoréactivité (OD), Serum 30 (anticorps anti-nef; Serum 30, anti-nef positive, 500 ng coated per well): ++ (pour OD = 0,4 à 0,8)
- intensité de l'immunoréactivité (OD), Serum 31 (anticorps anti-nef; Serum 31, anti-nef positive, 500 ng coated per well): +++ (pour OD = 0,8 à 2,0)
- intensité de l'immunoréactivité (OD), Serum 32 (anticorps anti-nef; Serum 32, anti-nef negative control serum, 500 ng coated per well): - (pour une densité optique (OD) inférieure à 0,2)
- intensité de l'immunoréactivité (OD), Serum 33 (anticorps anti-nef; Serum 33, anti-nef negative control serum, 500 ng coated per well): - (pour une densité optique (OD) inférieure à 0,2)
